# Reference: US20170303557A1, “PURIFICATION OF POLYPHENOLS” (NESTEC S.A., priority 2014, published 2017)
# Assay: Model study: degradation of 5-CQA and formation of its ethylester in 75% ethanolic solution (LC/MS-DAD)
# Assay type: physicochemical
# Conditions: 75% ethanol
# Method: During the experiment 5-CQA was stored in the presence of ethanol (75% ethanolic solution) by varying the following parameters pH, temperature and time.
# The process was conducted under the following conditions using 5-CQA esterification as the model.
# For each trial 10 mg of 5-CQA were dissolved in 40 mL of a 75% ethanolic solution. • pH studies: The pH was adjusted to pH 1, pH 2.7 and pH 4 with hydrochloric acid (32%) and to pH 12 by using NaOH solution (4 N) and all samples were kept in a lab oven at a temperature of 80° C. for 2 hours. • Temperature studies: CQA solutions were adjusted to pH 1 with hydrochloric acid (32%) and kept for 2 hours either at room temperature, 50° C. or 80° C. in a lab oven. • Time studies: 5-CQA solutions were adjusted to pH 1 and kept at room temperature or 50° C. for 1 h, 2 h, 3 h and 36 h (RT only). • System: The analysis was performed on a LC-DAD-MS system using LCQ Deca mass spectrometer (Thermo Finnigan), with a DAD detector (Thermo Finnigan) and a Rheos HPLC system (Thermo Finnigan). • Sample Preparation: For each parameter an aliquot of the solution was diluted 1:10 and directly used for LC/MS-DAD analysis. • HPLC Method: The separation was performed at ambient temperature on a Zorbax Eclipse C18 column, 5 μm, 150*3 mm (Agilent). A binary gradient of A/B (A: 0.1% formic acid, B: methanol) was applied. • MS parameters: The Mass spectrometer used is the LCQ-Deca operated in FullScan and data dependant MS/MS mode (m/z 100-1000) for compound identification.
structure (smiles),measurement,setting,value
"O=C(/C=C/c1ccc(O)c(O)c1)O[C@@H]1C[C@@](O)(C(=O)O)C[C@@H](O)[C@@H]1O [5-CQA, 5-caffeoyl quinic acid]",ester detectable as compared to the native 5-CQA,"pH 1, 50° C., 2 h",Up to 40%
same,ester formed,"pH 1, 50° C., period corresponding to desorption duration of up-scaled protocol (within first 3 h)",30%
same,ester as compared to 5-CQA,"pH 1, 80° C., 2 h",same amounts of the ester as compared to 5-CQA
same,transformation of 5-CQA into its ethylester,"pH 1, 80° C., 2 h",rapid transformation of 5-CQA into its ester
same,5-CQA transformed into its ethylester,"pH 1, RT, 2 h",only a small amount
same,ester formed,"pH 1, room temperature, 3 h",3%
same,ester formed,"pH 1, room temperature, 36 h",14%
same,5-CQA esterification,"pH 2.7, 80° C., 2 h",significantly reduced
same,degradation of 5-CQA,"pH 4, 80° C., 2 h",almost not degraded
same,degradation of 5-CQA,"pH 12, 80° C., 2 h",hydrolysis of 5-CQA yielding caffeic and quinic acid
